Results taken from patent US6500841B1, “Inhibitors of farnesyl-protein transferase” (Merck & Co., Inc., priority 1994, dated 2002).

Experiments:
[1] = system: Ras farnesylation in the v-ras cell line (viral Ha-ras p21); assay: cells; assay type: cell-based; conditions: v-ras cell line expressing viral Ha-ras p21; <1 = >50% inhibition at a 1 μM concentration
Experimental: The cell line used in this assay was the v-ras line, which expressed viral Ha-ras p21. The assay was performed essentially as described in DeClue, J. E. et. al., Cancer Research 51, 712-717, (1991). Cells in 10 cm dishes at 50-75% confluency were treated with the test compound (final concentration of solvent, methanol or dimethyl sulfoxide, was 0.1%). After 4 hours at 37° C., the cells were labelled in 3 ml methionine-free DMEM supplemeted with 10% regular DMEM, 2% fetal bovine serum and 400 μCi[^35S]methionine (1000 Ci/mmol). After an additional 20 hours, the cells were lysed in 1 ml lysis buffer (1% NP40/20 mM HEPES, pH 7.5/5 mM MgCl2/1 mM DTT/10 μg/ml aprotinen/2 μg/ml leupeptin/2 μg/ml antipain/0.5 mM PMSF) and the lysates cleared by centrifugation at 100,000×g for 45 min. Aliquots of lysates containing equal numbers of acid-precipitable counts were brought to 1 ml with IP buffer (lysis buffer lacking DTF) and immunoprecipitated with the ras-specific monoclonal antibody Y13-259 (Furth, M. E. et. al., J. Virol. 43, 294-304, (1982)). Following a 2 hour antibody incubation at 4° C., 200 μl of a 25% suspension of protein A-Sepharose coated with rabbit anti rat IgG was added for 45 min. The immunoprecipitates were washed four times with IP buffer ([…], pH 7.5/1 mM EDTA/1% Triton X-100.0.5% deoxycholate/0.1%/SDS/0.1 M NaCl) boiled in SDS-PAGE sample buffer and loaded on 13% acrylamide gels. When the dye front reached the bottom, the gel was fixed, soaked in Enlightening, dried and autoradiographed. The intensities of the bands corresponding to farnesylated and nonfarnesylated ras proteins were compared to determine the percent inhibition of farnesyl transfer to protein.

[2] = biological target: Farnesyl-protein transferase (FTase) (UniProt P49354+P49356); assay: In vitro inhibition of Ras farnesyl transferase; assay type: biochemical; conditions: Ras-CVLS at 3.5 μM, 0.25 μM [3H]FPP; partially purified bovine or recombinant human enzyme; concentration giving 50% inhibition of FTase; read-out: Inhibition of RAS farnesylation, IC50
Experimental: Farnesyl-protein transferase (FTase) from bovine brain was chromatographed on DEAE-Sephacel (Pharmacia, 0-0.8 M NaCl gradient elution), N-octyl agarose (Sigma, 0-0.6 M NaCl gradient elution), and a mono Q HPLC column (Pharmacia, 0-0.3 M NaCl gradient). Ras-CVLS at 3.5 μM, 0.25 μM [^3H]FPP, and the indicated compounds were incubated with either a partially purified bovine enzyme preparation or a recombinant human enzyme preparation. The recombinant human enzyme was prepared as described in Omer, C. A., Kral, A. M., Diehl, R. E., Prendergast, G. C., Powers, S., Allen, C. M., Gibbs, J. B. and Kohl, N. E. (1993) Biochemistry 32:5167-5176. The Frase data presented below in Table 1 reflects the ability of the test compound to inhibit RAS farnesylation in vitro, as described in Pompliano, et al., Biochemistry 31, 3800 (1992).

CCC(C)[C@@H](CN1Cc2ccccc2C[C@H]1C(=O)N[C@@H](CCSC)C(=O)OC)NC[C@@H](N)CS (stereo partly drawn) [Compound 1, N-[N′-[2(S)-(2(R)-amino-3-mercaptopropylamino)-3(S)-methylpentyl]-1,2,3,4-tetrahydro-3(S)-isoquinolinecarboxyl]-methionine methyl ester]
IC50 [1]: 250 nM
IC50 [2]: 680 nM

CCC(C)[C@@H](CN1Cc2ccccc2C[C@H]1C(=O)N[C@@H](CCSC)C(=O)O)NC[C@@H](N)CS (stereo partly drawn) [Compound 2, N-[N′-[2(S)-(2(R)-amino-3-mercaptopropylamino)-3(S)-methylpentyl]-1,2,3,4-tetrahydro-3(S)-isoquinolinecarboxyl]-methionine]
IC50 [2]: 0.39 nM

CC[C@H](C)[C@@H](CN1CCC[C@H]1C(=O)N[C@@H](CCSC)C(=O)OC)NC[C@@H](N)CS [Compound 3, N-[2(S)-(2(R)-amino-3-mercaptopropylamino)-3(S)-methylpentyl]-prolyl-methionine methyl ester]
IC50 [1]: 250 nM
IC50 [2]: 100 nM

CC[C@H](C)[C@@H](CN1CCC[C@H]1C(=O)N[C@@H](CCSC)C(=O)O)NC[C@@H](N)CS [Compound 4, N-[2(S)-(2(R)-amino-3-mercaptopropylamino)-3(S)-methylpentyl]-prolyl-methionine]
IC50 [1]: 10000 nM
IC50 [2]: 17 nM

CC[C@H]1CCN(C[C@@H](NC[C@@H](N)CS)[C@@H](C)CC)[C@@H]1C(=O)N[C@@H](CCSC)C(=O)OC [Compound 5, N-[2(S)-(2(R)-amino-3-mercaptopropylamino)-3(S)-methylpentyl]-trans-3-ethyl-prolyl-methionine methyl ester]
IC50 [1]: < 1000 nM
IC50 [2]: 520 nM

CC[C@H]1CCN(C[C@@H](NC[C@@H](N)CS)[C@@H](C)CC)[C@@H]1C(=O)N[C@@H](CCSC)C(=O)O [Compound 6, N-[2(S)-(2(R)-amino-3-mercaptopropylamino)-3(S)-methylpentyl]-trans-3-ethyl-prolyl-methionine]
IC50 [2]: 10 nM

CC[C@@H]1CCN(C[C@@H](NC[C@@H](N)CS)[C@@H](C)CC)[C@@H]1C(=O)N[C@@H](CCSC)C(=O)OC [Compound 7, N-[2(S)-(2(R)-amino-3-mercaptopropylamino)-3(S)-methylpentyl]-cis-3-ethyl-prolyl-methionine methyl ester]
IC50 [1]: 1000 nM
IC50 [2]: 2300 nM

CC[C@@H]1CCN(C[C@@H](NC[C@@H](N)CS)[C@@H](C)CC)[C@@H]1C(=O)N[C@@H](CCSC)C(=O)O [Compound 8, N-[2(S)-(2(R)-amino-3-mercaptopropylamino)-3(S)-methylpentyl]-cis-3-ethyl-prolyl-methionine]
IC50 [2]: 4.2 nM

CC[C@H](C)[C@@H](CN1CCC[C@H]1C(=O)N[C@@H](CCS(C)(=O)=O)C(=O)OC)NC[C@@H](N)CS [Compound 9, N-[2(S)-(2(R)-amino-3-mercaptopropylamino)-3(S)-methylpentyl]-prolyl-methionine sulfone methyl ester]
IC50 [1]: > 10000 nM
IC50 [2]: 950 nM

CCC(C)C(CN1CCCC1C(=O)NC(CCS(C)(=O)=O)C(=O)O)NCC(N)CS [Compound 10, N-[2(S)-(2(R)-amino-3-mercaptopropylamino)-3(S)-methylpentyl]-prolyl-methionine sulfone]
IC50 [2]: 35 nM

CCC(C)[C@@H](CN1Cc2ccccc2C[C@H]1C(=O)N[C@H]1CCOC1=O)NC[C@@H](N)CS (stereo partly drawn) [Compound 13, N-[N′-[2(S)-(2(R)-amino-3-mercaptopropylamino)-3(S)-methylpentyl]-1,2,3,4-tetrahydro-3(S)-isoquinolinecarboxyl]-homoserine lactone]
IC50 [1]: > 10000 nM
IC50 [2]: 390 nM

CCC(C)[C@@H](CN1Cc2ccccc2C[C@H]1C(=O)N[C@@H](CCO)C(=O)O)NC[C@@H](N)CS (stereo partly drawn) [Compound 14, N-[N′-[2(S)-(2(R)-amino-3-mercaptopropylamino)-3(S)-methylpentyl]-1,2,3,4-tetrahydro-3(S)-isoquinolinecarboxyl]-homoserine]
IC50 [2]: 7.6 nM

CCC(C)C(CN1CCCC1C(=O)NC1CCOC1=O)NCC(N)CS [Compound 15, N-[2(S)-(2(R)-amino-3-mercaptopropylamino)-3(S)-methylpentyl]-prolyl-homoserine lactone]
IC50 [1]: 50000 nM
IC50 [2]: 1400 nM

CC[C@H](C)[C@@H](CN1CCC[C@H]1C(=O)N[C@@H](CCO)C(=O)O)NC[C@@H](N)CS [Compound 16, N-[2(S)-(2(R)-amino-3-mercaptopropylamino)-3(S)-methylpentyl]-prolyl-homoserine]
IC50 [2]: 45 nM

CCC(C)C(CN1CCCCC1C(=O)NC1CCOC1=O)NCC(N)CS [Compound 17, N-[2(S)-(2(R)-amino-3-mercaptopropylamino)-3-methylpentyl]-2(S)-pipecolyl-homoserine lactone]
IC50 [2]: 24000 nM

CCC(C)C(NCC(N)CS)C(=O)N1CCCC1C(=O)NC1CCOC1=O [Compound 19, N-[2(R)-amino-3-mercaptopropyl]-isoleucyl-prolyl-homserine lactone]
IC50 [2]: 10000 nM

CCC(C)C(NCC(N)CS)C(=O)N1CCCC1C(=O)NC(CCO)C(=O)O [Compound 20, N-[2(R)-amino-3-mercaptopropyl]-isoleucyl-prolyl-homserine]
IC50 [2]: 350 nM

CCC(C)C(NCC(N)CS)C(=O)N1CCCCC1C(=O)NC1CCOC1=O [Compound 21, N-[2(R)-amino-3-mercaptopropyl]-isoleucyl-2(S)-pipecolyl-homserine lactone]
IC50 [2]: 25000 nM

CCC(C)C(NCC(N)CS)C(=O)N1CCCCC1C(=O)NC(CCO)C(=O)O [Compound 22, N-[2(R)-amino-3-mercaptopropyl]-isoleucyl-2(S)-pipecolyl-homserine]
IC50 [2]: 340 nM

CCC(C)C(CN1CCCC1C(=O)NC(CCSC)C(=O)OC)N(C)CC(N)CS [Compound 23, N-[2(S)-(2(R)-amino-3-(mercaptopropyl)methylamino)-3(S)-methylpentyl]-prolyl-methionine methyl ester]
IC50 [1]: < 1000 nM
IC50 [2]: 1200 nM

CCC(C)C(CN1CCCC1C(=O)NC(CCSC)C(=O)O)N(C)CC(N)CS [Compound 24, N-[2(S)-(2(R)-amino-3-(mercaptopropyl)methylamino)-3(S)-methylpentyl]-prolyl-methionine]
IC50 [2]: 6 nM

CCC(C)C(CN1CCCC1C(=O)NC(CCS(C)(=O)=O)C(=O)OC)N(C)CC(N)CS [Compound 25, N-[2(S)-(2(R)-amino-3-(mercaptopropyl)methylamino)-3(S)-methylpentyl]-prolyl-methionine sulfone methyl ester]
IC50 [2]: 10000 nM

CCC(C)C(CN1CCCC1C(=O)NC(CCS(C)(=O)=O)C(=O)O)N(C)CC(N)CS [Compound 26, N-[2(S)-(2(R)-amino-3-(mercaptopropyl)methylamino)-3(S)-methylpentyl]-prolyl-methionine sulfone]
IC50 [2]: 56 nM
